Some test systems named below: EKVX; HCT-116; HCT-15; HOP-92; KM-20L2; LOX IMVI; NCI-H23; OVCAR-3; OVCAR-8; RPMI-8226; RXF 393; SF-539; SK-MEL-2; SNB-75; UACC-62; COLO 205; Hs-578T; MDA-N; NCI-H522; PC-3.
Holding throughout (assay): NCI tumour cell line growth inhibition, 48 h

Each structure is given as a SMILES string.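 Briefly, cells in 96-well plates were exposed to five compound concentrations for 48 h, and endpoints were estimated by linear interpolation. GI50 is the concentration that inhibits growth by half.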 Activity calls are given as the source filed them. Rule as the data show it: active = GI50 up to about 1.1 µM and inactive = higher.

On to `CSCSCC(CO)NC(=O)/C=C/c1c(C)nc(O)nc1O` (stereo not given), for which the GI50 was 57.1 µM (inactive) in the assay on EKVX; > 100 µM (inactive) in the assay with HCT-116; over 100 µM in the assay on HCT-15; > 100 µM (inactive) in the assay with HOP-92; 46.8 µM (inactive) in the assay with KM-20L2; > 100 µM (inactive) with LOX IMVI. For the same compound, the GI50 in the assay with NCI-H23 was > 100 µM (inactive); in the assay on OVCAR-3, 26.4 µM (inactive); in the assay with OVCAR-8 it was > 100 µM (inactive); with RPMI-8226, > 100 µM (inactive); with RXF 393, > 100 µM (inactive); with SF-539, > 100 µM (inactive). In addition, the GI50 in the assay on SK-MEL-2 was 89.9 µM (inactive); with SNB-75 it was > 100 µM (inactive); in the assay with UACC-62, > 100 µM (inactive).
In the case of `Cc1c(C(=O)NCCO)[n+]([O-])c2cc(Cl)ccc2[n+]1[O-]`, the GI50 in the assay on COLO 205 is > 100 µM (inactive); with EKVX, > 100 µM (inactive); in the assay on HCT-116, > 100 µM (inactive); in the assay with HCT-15 it was over 100 µM; in the assay with HOP-92 it was > 100 µM (inactive); in the assay with KM-20L2, > 100 µM (inactive). Moreover, the GI50 in the assay with LOX IMVI, in the assay on NCI-H23, with OVCAR-3, in the assay on OVCAR-8, in the assay with RPMI-8226 and in the assay on RXF 393 was > 100 µM (inactive) in each case. The figures for the GI50 with SF-539, with SNB-75 and in the assay on UACC-62 were > 100 µM (inactive), 48.5 µM (inactive) and > 100 µM (inactive), respectively.
`O=C(c1ccc(Cl)cc1)c1ccc(OCC(=O)N2CCN(c3ccccc3)CC2)cc1`: the GI50 with COLO 205 is > 100 µM (inactive); in the assay with EKVX, > 100 µM (inactive); with HCT-116 it was > 100 µM (inactive); in the assay with HCT-15 it was over 100 µM; with HOP-92, > 100 µM (inactive); in the assay on KM-20L2, > 100 µM (inactive). In addition, the GI50 in the assay on LOX IMVI was > 100 µM (inactive); in the assay with NCI-H23 it was 53.7 µM (inactive); in the assay on OVCAR-3 it was > 100 µM (inactive); in the assay with OVCAR-8, > 100 µM (inactive); in the assay on RPMI-8226, > 100 µM (inactive); with RXF 393, > 100 µM (inactive). In addition, the GI50 in the assay with SF-539, in the assay on SK-MEL-2, with SNB-75 and with UACC-62 was > 100 µM (inactive) in each case.
Consider `COC(=O)c1c(C)[nH]c2c1C(=O)C(=O)c1nc(C)c(C)nc1-2`, for which the GI50 in the assay on COLO 205 was 8.63 µM (inactive); in the assay with EKVX, 8.69 µM (inactive); in the assay on HCT-116, 4.28 µM (inactive); in the assay with HCT-15, 9.98 µM; in the assay on HOP-92, 5.79 µM (inactive); in the assay with Hs-578T it was 5.85 µM (inactive). Moreover, the GI50 in the assay on LOX IMVI was 5.79 µM (inactive); in the assay on MDA-N, 5.37 µM (inactive); in the assay on NCI-H23 it was 10.2 µM (inactive); in the assay on NCI-H522, 3.48 µM (inactive); with OVCAR-3 it was 9.79 µM (inactive); in the assay on OVCAR-8 it was 10.2 µM (inactive). Moreover, the GI50 in the assay with PC-3 was 7.53 µM (inactive); with RPMI-8226, 10.2 µM (inactive); with RXF 393, 1.98 µM (inactive); in the assay with SF-539, 10.4 µM (inactive); in the assay on SK-MEL-2, 3.86 µM (inactive); in the assay on SNB-75 it was 1.21 µM (inactive). For the same compound, the GI50 in the assay with UACC-62 was 4.41 µM (inactive).
For `CCOC(=O)c1ncn2c1[nH]c(=O)c1ccccc12`, the GI50 is > 100 µM (inactive) with COLO 205; > 100 µM (inactive) with EKVX; > 100 µM (inactive) with HCT-116; over 100 µM in the assay on HCT-15; > 100 µM (inactive) with KM-20L2; > 100 µM (inactive) in the assay on LOX IMVI. In addition, the GI50 in the assay on NCI-H23, in the assay on NCI-H522, in the assay with OVCAR-3, in the assay on OVCAR-8, in the assay on RPMI-8226 and with RXF 393 was > 100 µM (inactive) throughout. Also, the GI50 is > 100 µM (inactive) in the assay on SF-539, > 100 µM (inactive) with SK-MEL-2, 11.9 µM (inactive) in the assay with SNB-75 and > 100 µM (inactive) in the assay on UACC-62.
As for `COc1ccc(/C=N/c2c(O)ccc3ccccc23)cc1OC`, the GI50 was 33 µM (inactive) with COLO 205; > 100 µM (inactive) in the assay with EKVX; 97.9 µM (inactive) in the assay on HCT-116; over 100 µM in the assay with HCT-15; 1.95 µM (inactive) with HOP-92; 4.36 µM (inactive) in the assay with Hs-578T. For the same compound, the GI50 in the assay with LOX IMVI is 46.8 µM (inactive); in the assay on MDA-N, 17.1 µM (inactive); in the assay with NCI-H23, 31.8 µM (inactive); with NCI-H522 it was 15.6 µM (inactive); in the assay on OVCAR-3, 5.14 µM (inactive); with OVCAR-8 it was > 100 µM (inactive). Also, the GI50 is > 100 µM (inactive) in the assay on PC-3; 19.2 µM (inactive) in the assay on RPMI-8226; 69.3 µM (inactive) in the assay with RXF 393; > 100 µM (inactive) in the assay with SF-539; > 100 µM (inactive) in the assay with SK-MEL-2; 47.2 µM (inactive) with SNB-75. The GI50 in the assay on UACC-62 is 72.6 µM (inactive).
Consider `O=C1C=C(c2c(O)ccc3ccccc23)c2cc(O)ccc2C1=O`, for which the GI50 in the assay with COLO 205 is 19.5 µM (inactive); in the assay on EKVX it was 21.2 µM (inactive); in the assay on HCT-116, 16 µM (inactive); in the assay on HCT-15, 16.7 µM; in the assay with HOP-92 it was 16.1 µM (inactive); in the assay on KM-20L2, 20 µM (inactive). The GI50 with LOX IMVI was 11.5 µM (inactive); in the assay with NCI-H23 it was 15.1 µM (inactive); in the assay with OVCAR-3, 10.7 µM (inactive); with OVCAR-8, 11.4 µM (inactive); with RPMI-8226, 4.47 µM (inactive); in the assay with RXF 393, 14.6 µM (inactive). The GI50 is 16.2 µM (inactive) in the assay on SF-539, 20.1 µM (inactive) in the assay with SK-MEL-2, 25.4 µM (inactive) in the assay with SNB-75 and 4.43 µM (inactive) in the assay on UACC-62.
Consider `C=C1C(=O)O[C@H]2C[C@@]3(C)[C@H](O)CCC(=C)[C@@H]3[C@@H](OC(C)=O)[C@H]12`, for which the GI50 in the assay with COLO 205 was 0.953 µM (active); in the assay on EKVX, 15.5 µM (inactive); in the assay on HCT-116, 3.66 µM (inactive); in the assay with HCT-15 it was 1.85 µM; with HOP-92 it was 2.71 µM (inactive); in the assay on Hs-578T, 14.3 µM (inactive). Besides, the GI50 with LOX IMVI is 5.43 µM (inactive); in the assay on MDA-N, 4.31 µM (inactive); with NCI-H23, 10.7 µM (inactive); in the assay on NCI-H522, 1.73 µM (inactive); with OVCAR-3, 12.3 µM (inactive); in the assay on OVCAR-8, 18.7 µM (inactive). Also, the GI50 with PC-3 was 16.5 µM (inactive); in the assay on RPMI-8226, 5 µM (inactive); in the assay with RXF 393, 3.56 µM (inactive); in the assay with SF-539 it was 0.409 µM (active); in the assay on SK-MEL-2, 15.9 µM (inactive); in the assay with SNB-75 it was 13.1 µM (inactive). Also, the GI50 with UACC-62 is 15.9 µM (inactive).
As for `Cc1cc2c(cc1C)[n+]([O-])c(-c1c(Cl)cccc1Cl)c(N)[n+]2[O-]`, the GI50 was 18.7 µM (inactive) in the assay on COLO 205; 46.3 µM (inactive) in the assay with EKVX; 28.4 µM in the assay on HCT-15; > 100 µM (inactive) in the assay on HOP-92; 40 µM (inactive) in the assay on KM-20L2; 44.7 µM (inactive) with LOX IMVI. In addition, the GI50 in the assay with NCI-H23 is 24.1 µM (inactive); in the assay with NCI-H522 it was 9.27 µM (inactive); in the assay on OVCAR-3, 28.2 µM (inactive); in the assay with OVCAR-8 it was 38.8 µM (inactive); in the assay on RPMI-8226 it was 67.5 µM (inactive); in the assay with SF-539, 27.9 µM (inactive). For the same compound, the GI50 in the assay with SK-MEL-2 is 31.6 µM (inactive); in the assay with SNB-75 it was > 100 µM (inactive); in the assay on UACC-62 it was 23.2 µM (inactive).
`CS/C(=N\C(=S)Nc1ccccc1)Nc1ccccc1`: the GI50 was 23.8 µM (inactive) with COLO 205; > 10 µM (inactive) in the assay on EKVX; > 10 µM (inactive) in the assay on HCT-116; 17.9 µM in the assay on HCT-15; 31 µM (inactive) in the assay on KM-20L2; 16.7 µM (inactive) with LOX IMVI. Besides, the GI50 with NCI-H23 is 29.4 µM (inactive); in the assay on NCI-H522, 14.6 µM (inactive); in the assay on OVCAR-3, 21 µM (inactive); with OVCAR-8, 25.4 µM (inactive); in the assay with RPMI-8226, 12.8 µM (inactive); in the assay with RXF 393 it was 15.2 µM (inactive). For the same compound, the GI50 was > 10 µM (inactive) in the assay on SF-539, 15.5 µM (inactive) with SK-MEL-2, 16.3 µM (inactive) in the assay on SNB-75 and 4.58 µM (inactive) with UACC-62.
Take `Nc1nc(N)c(N=O)c(Nc2ccc(Br)cc2)n1`: the GI50 was 19.9 µM (inactive) with COLO 205; 40.8 µM (inactive) in the assay on EKVX; 13.3 µM (inactive) in the assay on HCT-116; 15.3 µM in the assay with HCT-15; 15.4 µM (inactive) in the assay on HOP-92; 25.3 µM (inactive) in the assay with KM-20L2. Moreover, the GI50 in the assay on LOX IMVI was 18.2 µM (inactive); in the assay with NCI-H23 it was 23.4 µM (inactive); in the assay on NCI-H522, 17.9 µM (inactive); in the assay on OVCAR-3, 13.1 µM (inactive); in the assay with OVCAR-8 it was 27.2 µM (inactive); in the assay on SF-539 it was 16.9 µM (inactive). Further, the GI50 in the assay with SK-MEL-2 was 21.4 µM (inactive); in the assay with SNB-75, 10.4 µM (inactive); with UACC-62 it was 5.5 µM (inactive).
On to `COc1cc(/C=C\c2ccc(OC(C)=O)cc2)cc(OC)c1OC`, for which the GI50 in the assay on COLO 205 was 13.3 µM (inactive); with EKVX it was 10 µM (inactive); in the assay on HCT-116, 4.43 µM (inactive); with HOP-92, 20 µM (inactive); in the assay on KM-20L2, 25.9 µM (inactive); in the assay on NCI-H23 it was 0.352 µM (active). Further, the GI50 was 2.92 µM (inactive) in the assay on NCI-H522; 3.29 µM (inactive) in the assay on OVCAR-3; 4.03 µM (inactive) with OVCAR-8; 0.587 µM (active) in the assay with RPMI-8226; 2.26 µM (inactive) in the assay on SF-539; 4.26 µM (inactive) in the assay with SK-MEL-2. Besides, the GI50 in the assay with SNB-75 is 2.2 µM (inactive); in the assay with UACC-62, 4.85 µM (inactive).
